Values of other authors as cited in US20200155524A1, “METHOD FOR REDUCING SIDE EFFECTS FROM ADMINISTRATION OF PHOSPHODIESTERASE-4 INHIBITORS” (ARCUTIS, INC., priority 2018, published 2020).
Where two headings read alike, the source gives them in different places.

How the values were obtained:
[1] = initial oral administration
[2] = system: PDE-4 isoforms and subtypes; settings: different PDE-4 isoforms and subtypes
psoriasis = settings: after 4 weeks of dosing

Tmax (time after administration to reach Cmax) ([1]; 250 mcg tablet) [h] | Tmax (time after administration to reach Cmax) ([1]; 500 mcg tablet) [h] | half maximal inhibitory concentration (IC50) [2] | Compound | PASI 75 response rate (psoriasis) [%]
1 | 1 | subnanomolar | O=C(Nc1c(Cl)cncc1Cl)c1ccc(OC(F)F)c(OCC2CC2)c1 [roflumilast, N-(3,5-dichloropyrid-4-yl)-3-cyclopropylmethoxy-4-difluoromethoxybenzamid-e] | 
 |  |  | CCC(=O)OCC(=O)[C@@]1(OC(=O)CC)[C@@H](C)C[C@H]2[C@@H]3CCC4=CC(=O)C=C[C@]4(C)[C@@]3(F)[C@@H](O)C[C@@]21C [betamethasone dipropionate 0.064%, betamethasone dipropionate] | 32.7
 |  | subnanomolar | O=C(Nc1c(Cl)c[n+]([O-])cc1Cl)c1ccc(OC(F)F)c(OCC2CC2)c1 [roflumilast N-oxide, 3-cyclopropylmethoxy-4-difluoromethoxy-N-(3,5-dichloropyrid-4-yl 1-oxide)benzamide] | 
